From ChEMBL document CHEMBL3885861, “Open TG-GATES”

Species on record: Rattus norvegicus
Assay: Open TG-GATES - Regimen: Daily Repeat
Format: toxicity, organism-based, Sprague-Dawley
Set-up: regimen Daily Repeat, gender Male, age 6 weeks
Details: in vivo, po, 150 mg/kg, route gavage, dose level Middle; for APTT / Bas / Eos / Fbg / Hb / Ht / Lym / MCH / MCHC / MCV / Mono / Neu / PT / Plat / RBC / Ret / WBC: tissue Blood; for KIDNEY_L / KIDNEY_R / KIDNEY_TOTAL: tissue Kidney; for LIVER: tissue Liver; for A/G / ALP / ALT / AST / BUN / CRE / Ca / Cl / DBIL / GLC / IP / K / LDH / Na / PL / RALB / TBIL / TC / TG / TP / gamma-GTP: tissue Plasma

Compound: CN1C(=O)CCS(=O)(=O)C1c1ccc(Cl)cc1 (configuration not stated) [CHLORMEZANONE]
- TERMINAL_BW (72 h, time 3 day): 226.1 g
- APTT (72 h, time 3 day): 15.7 s
- Bas (72 h, time 3 day): 0%
- Eos (72 h, time 3 day): 1%
- Fbg (72 h, time 3 day): 296.4 mg/dL
- Hb (72 h, time 3 day): 13.5 g/dL
- Ht (72 h, time 3 day): 39.4%
- Lym (72 h, time 3 day): 76%
- MCH (72 h, time 3 day): 21.8 pg
- MCHC (72 h, time 3 day): 34.1%
- MCV (72 h, time 3 day): 63.8 fL
- Mono (72 h, time 3 day): 2.8%
- Neu (72 h, time 3 day): 19.4%
- PT (72 h, time 3 day): 11.4 s
- Plat (72 h, time 3 day): 123.4 x10_4/uL
- RBC (72 h, time 3 day): 618 x10_4/ul
- Ret (72 h, time 3 day): 6.2%
- WBC (72 h, time 3 day): 86.7 x10_2/uL
- KIDNEY_L (72 h, time 3 day): 0.9 g
- KIDNEY_R (72 h, time 3 day): 0.9 g
- KIDNEY_TOTAL (72 h, time 3 day): 1.8 g
- LIVER (72 h, time 3 day): 13 g
- A/G (72 h, time 3 day): 0.9
- ALP (72 h, time 3 day): 1825 IU/L
- ALT (72 h, time 3 day): 52.2 IU/L
- AST (72 h, time 3 day): 69 IU/L
- BUN (72 h, time 3 day): 15.4 mg/dL
- CRE (72 h, time 3 day): 0.2 mg/dL
- Ca (72 h, time 3 day): 11.2 mg/dL
- Cl (72 h, time 3 day): 106.6 meq/L
- DBIL (72 h, time 3 day): 0.014 mg/dL
- GLC (72 h, time 3 day): 179.6 mg/dL
- IP (72 h, time 3 day): 7.1 mg/dL
- K (72 h, time 3 day): 4.5 meq/L
- LDH (72 h, time 3 day): 74.6 IU/L
- Na (72 h, time 3 day): 143 meq/L
- PL (72 h, time 3 day): 144 mg/dL
- RALB (72 h, time 3 day): 2.8 g/dL
- TBIL (72 h, time 3 day): 0.026 mg/dL
- TC (72 h, time 3 day): 80.4 mg/dL
- TG (72 h, time 3 day): 94.6 mg/dL
- TP (72 h, time 3 day): 5.9 g/dL
- gamma-GTP (72 h, time 3 day): 1.4 IU/L
- TERMINAL_BW ([…], time 7 day): 265.5 g
- TERMINAL_BW ([…], time 14 day): 313.6 g
- TERMINAL_BW ([…], time 28 day): 389.8 g
- APTT ([…], time 7 day): 17 s
- Bas ([…], time 7 day): 0%
- Eos ([…], time 7 day): 0.8%
- Fbg ([…], time 7 day): 302.2 mg/dL
- Hb ([…], time 7 day): 13.2 g/dL
- Ht ([…], time 7 day): 39.4%
- Lym ([…], time 7 day): 78.2%
- MCH ([…], time 7 day): 21.3 pg
- MCHC ([…], time 7 day): 33.5%
- MCV ([…], time 7 day): 63.4 fL
- Mono ([…], time 7 day): 3%
- Neu ([…], time 7 day): 18%
- PT ([…], time 7 day): 11.5 s
- Plat ([…], time 7 day): 129.2 x10_4/uL
- RBC ([…], time 7 day): 621 x10_4/ul
- Ret ([…], time 7 day): 6.4%
- WBC ([…], time 7 day): 79.7 x10_2/uL
- APTT ([…], time 14 day): 19.7 s
- Bas ([…], time 14 day): 0%
- Eos ([…], time 14 day): 0.8%
- Fbg ([…], time 14 day): 306.2 mg/dL
- Hb ([…], time 14 day): 14 g/dL
- Ht ([…], time 14 day): 40.1%
- Lym ([…], time 14 day): 80%
- MCH ([…], time 14 day): 21 pg
- MCHC ([…], time 14 day): 34.8%
- MCV ([…], time 14 day): 60.3 fL
- Mono ([…], time 14 day): 2%
- Neu ([…], time 14 day): 16.2%
- PT ([…], time 14 day): 11.6 s
- Plat ([…], time 14 day): 118.9 x10_4/uL
- RBC ([…], time 14 day): 665.2 x10_4/ul
- Ret ([…], time 14 day): 4.2%
- WBC ([…], time 14 day): 102.9 x10_2/uL
- APTT ([…], time 28 day): 17.9 s
- Bas ([…], time 28 day): 0%
- Eos ([…], time 28 day): 1%
- Fbg ([…], time 28 day): 281 mg/dL
- Hb ([…], time 28 day): 14.5 g/dL
- Ht ([…], time 28 day): 41.2%
- Lym ([…], time 28 day): 78.8%
- MCH ([…], time 28 day): 19.7 pg
- MCHC ([…], time 28 day): 35.3%
- MCV ([…], time 28 day): 55.7 fL
- Mono ([…], time 28 day): 2.2%
- Neu ([…], time 28 day): 16.8%
- PT ([…], time 28 day): 11.9 s
- Plat ([…], time 28 day): 105.4 x10_4/uL
- RBC ([…], time 28 day): 741.2 x10_4/ul
- Ret ([…], time 28 day): 2.8%
- WBC ([…], time 28 day): 97.2 x10_2/uL
- KIDNEY_L ([…], time 7 day): 1 g
- KIDNEY_R ([…], time 7 day): 1 g
- KIDNEY_TOTAL ([…], time 7 day): 2 g
- KIDNEY_L ([…], time 14 day): 1.2 g
- KIDNEY_R ([…], time 14 day): 1.2 g
- KIDNEY_TOTAL ([…], time 14 day): 2.4 g
- KIDNEY_L ([…], time 28 day): 1.3 g
- KIDNEY_R ([…], time 28 day): 1.3 g
- KIDNEY_TOTAL ([…], time 28 day): 2.5 g
- LIVER ([…], time 7 day): 14.4 g
- LIVER ([…], time 14 day): 15.9 g
- LIVER ([…], time 28 day): 18.1 g
- A/G ([…], time 7 day): 0.9
- ALP ([…], time 7 day): 1471.4 IU/L
- ALT ([…], time 7 day): 46.2 IU/L
- AST ([…], time 7 day): 63.6 IU/L
- BUN ([…], time 7 day): 16.6 mg/dL
- CRE ([…], time 7 day): 0.2 mg/dL
- Ca ([…], time 7 day): 11.5 mg/dL
- Cl ([…], time 7 day): 107.8 meq/L
- DBIL ([…], time 7 day): 0.014 mg/dL
- GLC ([…], time 7 day): 193.2 mg/dL
- IP ([…], time 7 day): 6.9 mg/dL
- K ([…], time 7 day): 4.2 meq/L
- LDH ([…], time 7 day): 71.2 IU/L
- Na ([…], time 7 day): 143.8 meq/L
- PL ([…], time 7 day): 142.2 mg/dL
- RALB ([…], time 7 day): 2.8 g/dL
- TBIL ([…], time 7 day): 0.02 mg/dL
- TC ([…], time 7 day): 80.6 mg/dL
- TG ([…], time 7 day): 87 mg/dL
- TP ([…], time 7 day): 6 g/dL
- gamma-GTP ([…], time 7 day): 1.2 IU/L
- A/G ([…], time 14 day): 0.8
- ALP ([…], time 14 day): 1404.2 IU/L
- ALT ([…], time 14 day): 52.2 IU/L
- AST ([…], time 14 day): 63.4 IU/L
- BUN ([…], time 14 day): 17.2 mg/dL
- CRE ([…], time 14 day): 0.2 mg/dL
- Ca ([…], time 14 day): 11.3 mg/dL
- Cl ([…], time 14 day): 106.8 meq/L
- DBIL ([…], time 14 day): 0.006 mg/dL
- GLC ([…], time 14 day): 188.2 mg/dL
- IP ([…], time 14 day): 7 mg/dL
- K ([…], time 14 day): 4.3 meq/L
- LDH ([…], time 14 day): 76.6 IU/L
- Na ([…], time 14 day): 142.8 meq/L
- PL ([…], time 14 day): 136.8 mg/dL
- RALB ([…], time 14 day): 2.9 g/dL
- TBIL ([…], time 14 day): 0.052 mg/dL
- TC ([…], time 14 day): 74.4 mg/dL
- TG ([…], time 14 day): 74.4 mg/dL
- TP ([…], time 14 day): 6.3 g/dL
- gamma-GTP ([…], time 14 day): 1 IU/L
- A/G ([…], time 28 day): 0.9
- ALP ([…], time 28 day): 1029.8 IU/L
- ALT ([…], time 28 day): 46 IU/L
- AST ([…], time 28 day): 58 IU/L
- BUN ([…], time 28 day): 16.8 mg/dL
- CRE ([…], time 28 day): 0.3 mg/dL
- Ca ([…], time 28 day): 10.7 mg/dL
- Cl ([…], time 28 day): 105.8 meq/L
- DBIL ([…], time 28 day): 0.01 mg/dL
- GLC ([…], time 28 day): 190.4 mg/dL
- IP ([…], time 28 day): 5.8 mg/dL
- K ([…], time 28 day): 4.1 meq/L
- LDH ([…], time 28 day): 63.4 IU/L
- Na ([…], time 28 day): 142.8 meq/L
- PL ([…], time 28 day): 153.8 mg/dL
- RALB ([…], time 28 day): 2.9 g/dL
- TBIL ([…], time 28 day): 0.058 mg/dL
- TC ([…], time 28 day): 83.4 mg/dL
- TG ([…], time 28 day): 93.6 mg/dL
- TP ([…], time 28 day): 6.4 g/dL
- gamma-GTP ([…], time 28 day): 1 IU/L
